{
  "source": "paper PMC3605511",
  "about": "“Tumor P-Glycoprotein Correlates with Efficacy of PF-3758309 in in vitro and in vivo Models of Colorectal Cancer” (Frontiers in Pharmacology, 2013)",
  "key": {"BCRP": {"biological_target": "T1, BCRP (Homo sapiens, UniProt Q9UNQ0)", "T1 construct": "expressed in transfected cells; host or cells: BCRP-MDCKII-LE cells (canine MDCKII subpopulation with low endogenous P-gp)", "T1 sequence (Q9UNQ0 whole entry)": "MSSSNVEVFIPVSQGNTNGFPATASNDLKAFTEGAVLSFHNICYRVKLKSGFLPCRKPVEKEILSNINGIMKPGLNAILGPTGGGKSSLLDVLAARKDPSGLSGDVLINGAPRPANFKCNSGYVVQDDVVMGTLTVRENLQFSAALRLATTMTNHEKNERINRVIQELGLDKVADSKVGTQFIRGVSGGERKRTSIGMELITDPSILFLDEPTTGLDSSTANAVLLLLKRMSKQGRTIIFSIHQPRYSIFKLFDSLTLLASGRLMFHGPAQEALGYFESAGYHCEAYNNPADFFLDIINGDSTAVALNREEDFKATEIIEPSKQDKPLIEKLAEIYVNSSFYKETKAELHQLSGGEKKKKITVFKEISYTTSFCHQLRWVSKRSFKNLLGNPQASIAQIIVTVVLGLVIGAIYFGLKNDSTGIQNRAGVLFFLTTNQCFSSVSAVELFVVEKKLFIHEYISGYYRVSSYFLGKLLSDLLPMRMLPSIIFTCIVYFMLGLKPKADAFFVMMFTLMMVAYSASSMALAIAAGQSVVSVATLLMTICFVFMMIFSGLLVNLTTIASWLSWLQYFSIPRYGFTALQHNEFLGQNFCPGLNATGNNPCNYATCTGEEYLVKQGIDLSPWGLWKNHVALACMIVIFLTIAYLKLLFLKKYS", "assay": "BCRP-MDCKII-LE transwell assay (BCRP efflux)", "format": "in vitro ADME", "parameters": "A → B: scale not given here", "method": "(§1) Permeability and transporter substrate assays were performed as previously published (Feng et al., [2008]; Callegari et al., [2011]; Di et al., [2011]). Permeability assays were conducted in MDCKII-LE cells, which were generated by isolation of a subpopulation of cells with low expression of endogenous P-gp (Feng et al., [2008]; Callegari et al., [2011]; Di et al., [2011]). The use of MDCKII-LE cells are used to measure the passive permeability of compounds in place of MDCK wild-type or Caco-2 cells since both MDCK wild-type and Caco-2 cells are known to have some level of endogenous transporter expression which can affect the permeability measurement. P-gp efflux was determined in MDR1-MDCK cells and BCRP efflux was measured in BCRP-MDCKII-LE cells.\n(§2) MDR1-MDCK and BCRP-MDCKII-LE transwell assays measure the effect of P-gp and BCRP, respectively, on transcellular flux. The efflux ratio, ratio of the B → A flux to the A → B flux, of PF-309 was measured to be 34.9 ± 7.9 in the MDR1-MDCK assay, indicating it is a strong substrate for P-gp. PF-309 was also determined to be substrate for BCRP as the efflux ratio was measured to be 7.6 ± 1.1. As a reference, compounds with efflux ratios >2 are considered to be substrates (Callegari et al., [2011])."}, "P-gp": {"biological_target": "T2, P-gp (Homo sapiens, UniProt P08183)", "T2 construct": "expressed in transfected cells; host or cells: MDR1-MDCK cells (canine kidney MDCK)", "T2 sequence (P08183 whole entry)": "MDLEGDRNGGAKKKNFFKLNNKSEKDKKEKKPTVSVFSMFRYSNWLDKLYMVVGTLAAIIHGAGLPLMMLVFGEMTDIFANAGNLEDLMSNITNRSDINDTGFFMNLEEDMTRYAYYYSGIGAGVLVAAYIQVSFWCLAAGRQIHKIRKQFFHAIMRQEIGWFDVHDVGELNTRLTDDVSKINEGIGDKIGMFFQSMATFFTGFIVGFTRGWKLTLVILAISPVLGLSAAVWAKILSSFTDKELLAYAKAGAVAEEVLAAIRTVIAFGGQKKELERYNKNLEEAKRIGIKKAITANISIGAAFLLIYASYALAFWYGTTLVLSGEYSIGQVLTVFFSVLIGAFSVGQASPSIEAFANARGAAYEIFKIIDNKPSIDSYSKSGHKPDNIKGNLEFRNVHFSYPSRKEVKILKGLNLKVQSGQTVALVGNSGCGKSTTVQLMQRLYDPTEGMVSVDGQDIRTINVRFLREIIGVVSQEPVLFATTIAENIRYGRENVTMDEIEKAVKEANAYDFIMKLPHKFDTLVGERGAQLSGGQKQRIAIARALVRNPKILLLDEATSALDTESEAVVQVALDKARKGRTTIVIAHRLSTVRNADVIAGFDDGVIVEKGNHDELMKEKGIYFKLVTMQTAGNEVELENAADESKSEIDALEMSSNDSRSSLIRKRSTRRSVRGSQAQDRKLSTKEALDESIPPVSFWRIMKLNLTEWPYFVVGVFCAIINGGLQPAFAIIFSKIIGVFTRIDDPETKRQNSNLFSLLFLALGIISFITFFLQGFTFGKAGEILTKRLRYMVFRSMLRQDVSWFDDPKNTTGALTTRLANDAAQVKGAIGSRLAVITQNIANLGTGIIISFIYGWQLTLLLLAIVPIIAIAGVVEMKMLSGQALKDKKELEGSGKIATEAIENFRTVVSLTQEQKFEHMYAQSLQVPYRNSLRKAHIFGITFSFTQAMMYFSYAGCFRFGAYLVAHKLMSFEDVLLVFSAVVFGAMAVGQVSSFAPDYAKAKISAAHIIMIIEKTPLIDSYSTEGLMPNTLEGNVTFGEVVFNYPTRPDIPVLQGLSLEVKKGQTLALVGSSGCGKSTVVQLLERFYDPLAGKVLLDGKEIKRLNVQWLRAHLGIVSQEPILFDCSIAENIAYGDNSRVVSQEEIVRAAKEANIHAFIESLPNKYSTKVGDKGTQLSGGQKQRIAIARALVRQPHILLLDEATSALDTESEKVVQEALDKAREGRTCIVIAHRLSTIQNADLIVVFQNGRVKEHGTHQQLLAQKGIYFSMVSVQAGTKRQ", "assay": "MDR1-MDCK transwell assay (P-gp efflux)", "format": "in vitro ADME", "conditions": "dog, ratio of B → A flux to A → B flux, >2 = substrate", "method": "as §1, §2"}, "[1]": {"assay": "End of study tumor and plasma concentrations (LC/MS/MS)", "format": "in vivo", "conditions": "mice, trough (6–8 h)"}, "RKO": {"test_system": "RKO", "assay": "Cell proliferation assay, RKO", "format": "cell-based", "conditions": "Homo sapiens, 72 h, SRB assay", "method": "(§3) Cytotoxic/proliferation effects were determined using the sulforhodamine B (SRB) assay (Skehan et al., [1990]) or by resazurin. Briefly, cells in logarithmic growth phase were transferred to 96 well flat bottom plates with lids. One-hundred microliter cell suspensions containing 1500–5000 viable cells were plated into each well and incubated overnight prior to exposure with increasing concentrations of PF-309 for 3–5 days, dependent upon cell type. Media was removed and cells were fixed with cold 10% trichloroacetic acid for 30 min at 4°C. Cells were then washed with water and stained with 0.4% SRB (Fisher Sci., Pittsburgh, PA, USA) for 30 min at room temperature, washed again with 1% acetic acid, followed by stain solubilization with 10 mM tris at room temperature. The plate was then read on a plate reader (Biotek Synergy 2, Winooski, VT, USA) set at an absorbance wavelength of 565 nm. Cell proliferation curves were derived from the raw absorbance (OD) data.\n(§4) Since PF-309 appeared to be a strong P-gp and BCRP substrates, we sought to evaluate if the transporters influenced sensitivity in vitro. We evaluated the sensitivity of CRC cell lines to PF-309 treatment in a panel of 27 lines. Cells were exposed to PF-309 at a range of concentrations for 72 h and cell content measured by SRB assay (see Pitts et al., [2013]). […]"}, "CRC cell lines": {"test_system": "CRC cell lines", "assay": "Proliferation assays with and without P-gp inhibitor CP-100356, subset of CRC cell lines", "format": "cell-based, human", "conditions": "0.625 μM CP-100356; five out of the six CRC cell lines", "procedure": "Cytotoxic/proliferation effects were determined using the sulforhodamine B (SRB) assay (Skehan et al., [1990]) or by resazurin. Briefly, cells in logarithmic growth phase were transferred to 96 well flat bottom plates with lids. […] Media was removed and cells were fixed with cold 10% trichloroacetic acid for 30 min at 4°C. Cells were then washed with water and stained with 0.4% SRB (Fisher Sci., Pittsburgh, PA, USA) for 30 min at room temperature, washed again with 1% acetic acid, followed by stain solubilization with 10 mM tris at room temperature. The plate was then read on a plate reader (Biotek Synergy 2, Winooski, VT, USA) set at an absorbance wavelength of 565 nm. Cell proliferation curves were derived from the raw absorbance (OD) data."}, "CUCRC006 CRC PDTX model": {"test_system": "CUCRC006 CRC PDTX model", "assay": "Patient derived tumor xenograft efficacy, CUCRC006", "format": "in vivo, mice", "conditions": "25 mg/kg orally twice daily, 22–56 days, end of study tumor volumes", "method": "(§5) For patient tumor xenografts, surgical specimens of patients undergoing either removal of a primary or metastatic tumor at the University of Colorado Hospital are implanted subcutaneously into five mice for each patient with a 10-G trochar. After a subsequent growth and passage in mice, tumors are excised, and expanded into cohorts for treatment (n = 6–15 per group). Mice were treated with PF-309 or vehicle (0.5% methylcellulose) for 22–56 days (until control tumor volume reach ∼1500 mm^3) twice daily (BID) by oral gavage (PO). Monitoring of mice and measurements of tumors were conducted as described above. % Growth Inhibition= (average control volume−average treated volume)/average control volume×100% In addition to the cell line xenografts, we also treated 12 different patient derived tumor xenograft (PDTX) CRC models with PF-309 (Figure 6). We were unable to assess how ABCB1 gene expression correlated with efficacy in these models. The PDTX models are propagated in vivo, are not immortalized, and are not grown in in vitro culture. […] Tumor and plasma sample pairs were collected from animals at the end of study for eight tumor models (three cell line xenografts and five PDTX models) and concentrations of PF-309 were measured. […]"}, "SW48": {"test_system": "SW48", "assay": "Cell proliferation assay, SW48", "format": "cell-based", "conditions": "Homo sapiens; SW48, 72 h, SRB assay", "method": "as §3, §4"}, "CUCRC042 CRC PDTX model": {"test_system": "CUCRC042 CRC PDTX model", "assay": "Patient derived tumor xenograft efficacy, CUCRC042", "format": "in vivo, mice", "conditions": "25 mg/kg orally twice daily, 22–56 days, end of study tumor volumes", "method": "as §5"}, "NCIH508": {"test_system": "NCIH508", "assay": "Cell proliferation assay, NCIH508", "format": "cell-based", "conditions": "Homo sapiens, NCI-H508; NCIH508, 72 h, SRB assay", "method": "as §3, §4"}},
  "data": [
    {"compound": "Cc1nc(Nc2n[nH]c3c2CN(C(=O)N[C@H](CN(C)C)c2ccccc2)C3(C)C)c2sccc2n1", "note": "[PF-309]", "values": [
      {"measurement": "efflux ratio", "setting": "BCRP; dog, ratio of B → A flux to A → B flux, >2 = substrate", "value": 7.6},
      {"measurement": "A → B", "setting": "BCRP; transwell flux", "value": ";1.4 ± 0.1 cm/s"},
      {"measurement": "efflux ratio", "setting": "P-gp", "value": "34.9 ± 7.9"},
      {"measurement": "total plasma concentrations at the trough", "setting": "[1]", "value": "1 to 10", "unit": "nM"},
      {"measurement": "IC50", "setting": "RKO", "value": "3.6 ± 0.1", "unit": "nM"},
      {"measurement": "fold change in the IC50 of PF-309 caused by CP-100356", "setting": "CRC cell lines", "value": "4–100 fold"},
      {"measurement": "% Growth inhibition", "setting": "CUCRC006 CRC PDTX model", "value": 32, "unit": "%"},
      {"measurement": "IC50", "setting": "SW48", "value": "11.9 ± 4.4", "unit": "nM"},
      {"measurement": "% Growth inhibition", "setting": "CUCRC042 CRC PDTX model", "value": 52, "unit": "%"},
      {"measurement": "IC50", "setting": "NCIH508", "value": "> 1000", "unit": "nM"}
    ]}
  ]
}
